From ChEMBL document CHEMBL1201862, “PubChem BioAssay data set” (2004)
Calls of active or inactive are those of the source.

Legend:
[1] = target: T1, Ubiquitin-conjugating enzyme E2 N (Homo sapiens, UniProt P61088); format: functional;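 note: Dose-response confirmation in a TR-FRET assay detecting UBC13-driven polyubiquitin chain formation, inhibition measured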
T1 sequence (P61088 whole entry): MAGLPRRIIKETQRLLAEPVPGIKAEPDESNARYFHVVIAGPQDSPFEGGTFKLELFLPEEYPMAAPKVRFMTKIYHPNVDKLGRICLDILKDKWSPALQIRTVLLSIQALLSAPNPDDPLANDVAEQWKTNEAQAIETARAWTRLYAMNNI

[2] = test system: Vero; assay: host cell cytotoxicity of antiviral hits, dose response, cytotoxicity control for West Nile virus antiviral project, secondary assay (AID 1650); format: functional; conditions: Chlorocebus sabaeus
[3] = target: Epstein-Barr nuclear antigen 1 (Epstein-Barr virus (strain B95-8) (HHV-4) (Human herpesvirus 4), UniProt P03211); assay: EBNA-1 inhibitors, dose response, biochemical, fluorescence polarization, 1536-well (AID 2381); design: species or system human gammaherpesvirus 4;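 note: fluorescence polarization of a Cy5 DNA probe bound by EBNA-1 protein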
Chain of Epstein-Barr nuclear antigen 1 (P03211 whole entry): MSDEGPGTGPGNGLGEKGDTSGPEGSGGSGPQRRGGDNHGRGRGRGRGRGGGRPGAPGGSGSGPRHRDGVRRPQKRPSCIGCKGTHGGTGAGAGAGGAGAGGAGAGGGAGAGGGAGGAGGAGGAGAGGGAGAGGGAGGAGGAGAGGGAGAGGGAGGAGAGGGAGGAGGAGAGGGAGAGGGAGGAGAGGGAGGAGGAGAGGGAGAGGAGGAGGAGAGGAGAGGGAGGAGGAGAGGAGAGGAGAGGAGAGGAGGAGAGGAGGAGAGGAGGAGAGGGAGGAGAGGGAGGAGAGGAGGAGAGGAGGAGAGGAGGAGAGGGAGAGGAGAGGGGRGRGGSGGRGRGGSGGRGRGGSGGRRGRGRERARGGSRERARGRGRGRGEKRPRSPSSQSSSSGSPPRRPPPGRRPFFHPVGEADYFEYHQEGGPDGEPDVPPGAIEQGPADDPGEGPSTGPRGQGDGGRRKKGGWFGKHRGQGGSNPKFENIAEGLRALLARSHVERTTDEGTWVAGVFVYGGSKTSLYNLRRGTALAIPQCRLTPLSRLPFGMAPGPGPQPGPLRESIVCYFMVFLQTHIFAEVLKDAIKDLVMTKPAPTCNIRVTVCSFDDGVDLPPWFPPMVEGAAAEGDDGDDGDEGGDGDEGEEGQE

[4] = target: Lytic switch protein BZLF1 (Epstein-Barr virus (strain B95-8) (HHV-4) (Human herpesvirus 4), UniProt P03206); assay: EBV ZTA inhibitors, dose response, counter-screen for EBNA-1 inhibitor project, biochemical, fluorescence polarization, Epstein-Barr virus, 1536-well (AID 2377); design: species or system human gammaherpesvirus 4;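 note: fluorescence polarization of Cy5-labelled ZRE DNA probe bound by purified Zta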
Chain of Lytic switch protein BZLF1 (P03206 whole entry): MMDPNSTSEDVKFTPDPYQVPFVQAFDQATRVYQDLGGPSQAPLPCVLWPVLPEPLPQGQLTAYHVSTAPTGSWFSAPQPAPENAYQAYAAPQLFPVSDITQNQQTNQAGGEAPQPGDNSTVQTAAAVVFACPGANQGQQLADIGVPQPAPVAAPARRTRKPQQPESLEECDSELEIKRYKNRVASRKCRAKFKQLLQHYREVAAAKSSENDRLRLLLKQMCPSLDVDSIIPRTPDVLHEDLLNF

[5] = target: T2, Aspartyl aminopeptidase (Plasmodium falciparum 3D7, UniProt Q8I2J3); assay: Counterscreen for inhibitors of M1 and M17 aminopeptidases: QFRET-based biochemical high throughput dose response assay for inhibitors of the Plasmodium falciparum M18 Aspartyl Aminopeptidase (PFM18AAP). [Related PubChem assays: 1619 (Screening assay (M17LAP inhibitors).), 1445 (Screening assay (M1AAP inhibitors).)]
T2 sequence (Q8I2J3 whole entry): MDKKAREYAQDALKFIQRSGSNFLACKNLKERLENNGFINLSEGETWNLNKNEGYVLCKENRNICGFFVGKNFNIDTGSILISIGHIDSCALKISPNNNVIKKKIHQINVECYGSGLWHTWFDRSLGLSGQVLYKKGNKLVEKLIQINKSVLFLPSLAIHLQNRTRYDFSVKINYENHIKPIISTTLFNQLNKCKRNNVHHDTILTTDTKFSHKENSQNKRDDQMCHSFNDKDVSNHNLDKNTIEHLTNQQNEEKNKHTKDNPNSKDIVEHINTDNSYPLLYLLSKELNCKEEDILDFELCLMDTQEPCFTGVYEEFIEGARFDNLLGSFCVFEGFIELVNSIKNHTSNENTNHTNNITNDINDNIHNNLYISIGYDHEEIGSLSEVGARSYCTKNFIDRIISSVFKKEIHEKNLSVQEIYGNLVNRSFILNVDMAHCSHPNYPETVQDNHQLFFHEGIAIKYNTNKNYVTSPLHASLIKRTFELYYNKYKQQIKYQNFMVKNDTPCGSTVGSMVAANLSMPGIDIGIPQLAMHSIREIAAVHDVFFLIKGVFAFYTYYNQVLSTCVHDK

[6] = inhibitors of Vif binding to APOBEC3G peptide, primary screen, biochemical, TR-FRET, GST-Vif 1-94, biotin-A3G peptide, dose response retest (AID 1117319); format: functional;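 note: TR-FRET signal of purified GST-Vif binding a biotinylated A3G peptide; inhibitors lower the FRET signal by blocking Vif and A3G binding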
[7] = target: Procathepsin L (Homo sapiens, UniProt P07711); assay: cathepsin L inhibitors, dose response, counter-screen for M1/M17 aminopeptidase inhibitor project, biochemical, QFRET, 1536-well (AID 2214)
Chain of Procathepsin L (P07711 whole entry): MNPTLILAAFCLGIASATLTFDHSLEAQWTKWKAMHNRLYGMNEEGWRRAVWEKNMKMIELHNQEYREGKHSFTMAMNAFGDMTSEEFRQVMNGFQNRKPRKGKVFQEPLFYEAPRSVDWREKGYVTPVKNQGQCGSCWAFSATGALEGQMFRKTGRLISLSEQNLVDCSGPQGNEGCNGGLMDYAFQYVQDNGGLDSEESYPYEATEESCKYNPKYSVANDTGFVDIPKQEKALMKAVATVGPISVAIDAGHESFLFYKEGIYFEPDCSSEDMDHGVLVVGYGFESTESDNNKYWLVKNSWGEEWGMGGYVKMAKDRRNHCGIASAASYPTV

[8] = target: T3, Leucine aminopeptidase (Plasmodium falciparum 3D7, UniProt Q8IL11); assay: P. falciparum M17LAP inhibitors, primary screen, biochemical, fluorogenic H-Leu-NHMec substrate, 1536-well (AID 1619); format: functional
T3 sequence (Q8IL11 whole entry): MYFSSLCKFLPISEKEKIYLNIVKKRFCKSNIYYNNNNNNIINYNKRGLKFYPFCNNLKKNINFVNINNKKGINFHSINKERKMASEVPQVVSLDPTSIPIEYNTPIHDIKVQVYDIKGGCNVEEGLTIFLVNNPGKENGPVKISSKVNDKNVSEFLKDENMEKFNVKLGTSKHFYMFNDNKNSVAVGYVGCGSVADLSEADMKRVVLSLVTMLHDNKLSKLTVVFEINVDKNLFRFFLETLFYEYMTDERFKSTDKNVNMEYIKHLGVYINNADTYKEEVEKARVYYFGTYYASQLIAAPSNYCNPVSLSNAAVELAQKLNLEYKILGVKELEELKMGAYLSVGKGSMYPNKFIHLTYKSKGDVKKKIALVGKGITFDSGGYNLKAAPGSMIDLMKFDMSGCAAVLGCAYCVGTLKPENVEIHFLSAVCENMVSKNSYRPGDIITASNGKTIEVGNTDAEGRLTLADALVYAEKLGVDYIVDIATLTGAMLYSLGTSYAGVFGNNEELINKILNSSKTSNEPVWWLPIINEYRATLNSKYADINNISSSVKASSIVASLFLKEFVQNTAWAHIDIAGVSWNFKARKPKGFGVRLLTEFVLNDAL

[9] = THP-1 cell cytotoxicity, dose response, cytotoxicity control for Vif-APOBEC3G degradation inhibitor project, THP-1 cells (AID 1117359); format: functional; conditions: Human immunodeficiency virus 1, THP-1
[10] = target: T4, Polyadenylate-binding protein 1 (Homo sapiens, UniProt P11940); assay: PABP1 MLLE–PAM2 interaction inhibitors, dose response, miRNA deadenylation inhibitor project, biochemical, fluorescence polarization, Cy5-PAM2 peptide, secondary (AID 602260); format: functional; conditions: read-out: IC50_Mean
T4 sequence (P11940 whole entry): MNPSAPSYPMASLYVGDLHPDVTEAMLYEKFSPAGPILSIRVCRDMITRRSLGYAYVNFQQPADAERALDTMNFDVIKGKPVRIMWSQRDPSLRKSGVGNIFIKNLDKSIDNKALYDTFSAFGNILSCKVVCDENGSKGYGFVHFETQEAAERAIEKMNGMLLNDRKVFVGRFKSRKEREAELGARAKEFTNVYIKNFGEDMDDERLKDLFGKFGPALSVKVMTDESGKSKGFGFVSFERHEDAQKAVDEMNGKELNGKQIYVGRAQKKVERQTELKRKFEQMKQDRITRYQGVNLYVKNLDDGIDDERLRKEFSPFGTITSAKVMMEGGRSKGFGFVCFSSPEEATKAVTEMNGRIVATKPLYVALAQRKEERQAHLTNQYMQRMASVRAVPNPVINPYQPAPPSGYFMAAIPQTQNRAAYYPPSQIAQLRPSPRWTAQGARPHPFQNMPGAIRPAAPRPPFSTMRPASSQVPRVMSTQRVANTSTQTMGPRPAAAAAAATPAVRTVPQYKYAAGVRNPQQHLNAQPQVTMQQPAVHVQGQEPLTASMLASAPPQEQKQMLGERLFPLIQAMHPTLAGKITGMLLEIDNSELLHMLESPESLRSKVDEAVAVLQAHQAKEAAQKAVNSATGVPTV

[11] = target: T4, Polyadenylate-binding protein 1; assay: PABP1 MLLE–PAM2 binding inhibitor potency, dose response, biochemical, fluorescence polarization, FITC-PAM2 peptide (AID 602259); format: functional; conditions: read-out: IC50_Mean
[12] = Luminescence Cell-Based Dose Response to Identify Activators of 5'UTR Stem-Loop Driven Prion Protein mRNA Translation in H4-C Neuroglioblastoma Cells. [Related pubchem assays: 1829 (Project Summary), 1814 (Primary HTS)]; format: functional
[13] = Luminescence Cell-Based Dose Confirmation HTS to Identify Activators of 5'UTR Stem-Loop Driven Alpha-Synuclein mRNA Translation in H4 Neuroglioblastoma Cells. [Related pubchem assays: 1829 (Project Summary), 1814 (Primary HTS)]; format: functional
[14] = Luminescence Cell-Based Dose Response HTS to Identify Activators of Luciferase Translation or Activity in H4 […] Cells. [Related pubchem assays: 1829 (Project Summary), 1814 (Primary HTS)]; format: functional
[15] = Luminescence Cell-Based Dose Response to Identify Activators of Luciferase Translation or Activity in H4-C Neuroglioblastoma Cells. [Related pubchem assays: 1829 (Project Summary), 1814 (Primary HTS)]; format: functional
[16] = Luminescence Cell-Based Dose Confirmation to Identify Activators of 5'UTR Stem-Loop Driven Alpha-Synuclein mRNA Translation in H4 Neuroglioblastoma Cells. [Related pubchem assays: 1829 (Project Summary), 1814 (Primary HTS)]; format: functional

## CCCN(CCC)CCCNC(=O)c1cc2c(=O)n(CC)c3ccccc3c2s1
[1]
  IC50: > 20 µM (inactive)
[2]
  CC50: 18.8 µM (active)

## O=C(N/C(=C/c1ccc(Br)cc1)c1nc2ccccc2[nH]1)c1ccco1
[3]
  IC50: 20 µM (not active)
[4]
  IC50: 111 µM (not active)

## Cc1c(O)n(-c2ccc(F)cc2)c(SCC(=O)Nc2ccc3c4c(cccc24)CC3)nc1=O
[5]
  IC50: > 73.5 µM (not active)
[6]
  IC50: > 100 µM (active)
[7]
  IC50: > 59.6 µM (not active)
[8]
  IC50: 6.36 µM (active)
[9]
  CC50: > 40 µM (active)
[10]
  IC50: > 66 µM (inactive)
[11]
  IC50: > 66 µM (inactive)

## O=C(N/N=C/c1ccccc1F)c1csc2c1CCCC2
[12]
  EC50: 0.264 µM (active)
[13]
  EC50: < 0.1 µM (active)
[14]
  EC50: < 0.1 µM (inconclusive)
[15]
  EC50: 0.323 µM (active)
[16]
  EC50: 0.227 µM (active)
